From article PMC9301920, “Physiologically Based Toxicokinetic Modeling of Bisphenols in Zebrafish (Danio rerio) Accounting for Variations in Metabolic Rates, Brain Distribution, and Liver Accumulation” (Environmental Science & Technology, 2022)
Like-named read-outs stand apart in the source and are kept apart here.

Experiments:
[1] = In vitro biotransformation rate, rainbow trout liver S9 (OECD TG 319); assay type: in vitro ADME
Method: In brief, rainbow trout liver S9 homogenate was preincubated in buffer and cofactors, followed by 120 min of incubation with bisphenol. From each duplicate, 50 μL of subsamples was taken at timepoints 0, 2, 5, 15, 30, 60, 90, and 120 min and mixed with 200 μL of ice-cold methanol. The protocol of the procedure is described further in Section 2.
1042. Biotransformation rate estimation methodology
106Trinova Biochem; Lot: 180216) was pre-incubated at 11°C in K 2HPO4/KH2PO4 buffer
107(pH=7.8; 1 mL final volume) containing alamethicin from Trichoderma viride (25 μg/mL), and
108cofactors NADPH (2 mM), UDPGA (2 mM), GSH (5 mM), and PAPS (0.1 mM). After 10 min
109of preincubation, biotransformation was started by adding 5 µL of bisphenol test compound
110dissolved in methanol (1 µM final concentration). […]

[2] = In vivo zebrafish kinetics of BPZ (water exposure, organ concentrations by LC-MS/MS); set-up: species or system zebrafish (Danio rerio); conditions: female, zebrafish; for concentration at 12 h / concentration at 483 h / concentration at 486 h / concentration at 492 h / concentration at 504 h / concentration at 576 h / concentration at 6 h / concentration at 24 h / concentration at 48 h / concentration at 72 h / concentration at 336 h / concentration at 411 h / concentration at 480 h: female zebrafish; for concentration at 483 h: 483 h (depuration phase); for concentration at 486 h: 486 h (depuration phase); for concentration at 492 h: 492 h (depuration phase); for concentration at 504 h: 504 h (depuration phase); for concentration at 576 h: 576 h (depuration phase); for concentration at 480 h: 480 h (one outlier fish removed); for Cmax / half-life: 17 μg/L in water, observed
Method: (§1) At sampling, adult fish were euthanized by immersion in a sodium bicarbonate-buffered tricaine methanesulfonate solution (MS222: 500 mg/L) and decapitated thereafter. […] Additionally, three whole fish were sampled at timepoints of 6, 12, and 24 h of the exposure phase. Water from the fish tank was sampled at 0, 12, 24, 48, 72, 168, 336, 411, and 480 h after exposure start as well as at 0, 12, 24, and 96 h after the start of depuration. Control fish and tank water were sampled before the start of exposure. All samples were immediately stored at −20 °C until further analysis. […]
(§2) 1223. In Vivo Zebrafish Kinetics of BPZ
(§3) 123Adult zebrafish were purchased from a local supplier in Uppsala, Sweden, and acclimatized for
(§4) 1246 weeks before the start of the study. The zebrafish were kept in 26 °C charcoal filtered tap
(§5) 173NH 4OH and 4 ml acetonitrile/tetrahydofuran (1:1) mixture. The 4 ml 2% formic acid in
(§6) 174methanol eluates were evaporated until dry. Remaining residues were then reconstituted in 50
(§7) 175µl water and methanol 50/50 v/v mixture. Extracts were stored at 4°C until measurement.
(§8) 176The extracts were measured on a LC (ExionLC, Sciex) coupled with a Turbo V Ion source (ESI)
(§9) 178Sciex). Separation of compound was done on a phenyl-hexyl column (Kinetex, 100 x 2.1 mm,
(§10) 1791.7 µm, Phenomenex) set at 45°C using a gradient of 0.2 mM NH 4F and 0.2 mM NH4F in
(§11) 180acetonitrile. The applied MRM transitions and MS/MS settings are described in Tables S5-S8.
(§12) LC column Kinetex Phenyl-hexyl column, 1.7 µm, 2,1 mm X 100
(§13) Delay column Isolator column, 2.1 mm X 100 mm (Waters)
(§14) Gradient 0.2 mM NH4F 0.2 mM NH4F in
(§15) 194limit of detection (LOD). The LOD is defined as three times the standard deviation of the blank
(§16) 195plus the average blank value. The limit of quantification (LOQ) is defined as 3.3 * LOD value
(§17) Blank pg/extract Recovery % Repeatability %
(§18) Detection and report limits (calculated on based of average sample intake)

female zebrafish = assay: as above; set-up: species or system zebrafish (Danio rerio); conditions: 17 μg/L in water, observed
Method: as §1, §2, §3, §4, §5, §6, §7, §8, §9, §10, §11, §12, §13, §14, §15, §16, §17, §18

zebrafish = assay: PBTK parameter fitting (Nelder–Mead algorithm) to in vivo zebrafish data; set-up: species or system zebrafish (Danio rerio); conditions: fitted on brain BPZ concentrations of current study; used for all bisphenols
Excerpt: Ovaries and eggs were assumed to receive the same blood flow. The equation for the egg compartment was described as follows using the diffusion-limited equation previously described by Thompson and Beard[51] [drawing 4] 4 where dAegg/dt represents the rate of change of bisphenol over time in the egg compartment, Agon and Aegg represent the amount of compound in the gonads and egg, respectively, Vgon and Vegg are the volumes of the gonads and eggs, respectively, and Pgon and Pegg are the partition coefficients of the gonads to blood and egg to gonads.
Parameter fitting was done in R using the modFit function in the FME package with the Nelder–Mead algorithm.[53]
279For fitting, the model was run using the exposure scenarios of each fitting data set.
280parameters were fixed as presented in Tables S10-S14 with exception of the parameter for
281which fitting was performed. The outcome evaluated by fitting algorithm was the concentration
282over time in the same tissue as the experimental data. Outcomes used for fitting to measured
283experimental data were: concentration in brain for brain-blood partition coefficient,
284concentration in liver for liver-blood partition coefficient, concentration in eggs for egg-gonad
285partition coefficient and whole-body metabolite concentration for Ke bile and KBG of metabolites.
286For the liver, brain and egg partitioning, the range was set between 0.01 and 500 and the Nelder-
287Mead algorithm was run with initial estimates at 1, 5, 10, 50 and 500 in order to assure a global
288minimum was found. The fitted values returning the lowest squared sum of residuals were used
The GI lumen to GI tract diffusion rate (K u)

[3] = brain, other: exposure via tank water, 10 μg/L (nominal water concentration), read-out: Mean concentration, brain
[4] = brain, other: water exposure, 10 µg/L, read-out: Mean concentration, brain
[5] = carcass, other: exposure via tank water, 10 μg/L (nominal water concentration), read-out: Mean concentration, carcass
[6] = carcass, other: water exposure, 10 µg/L, read-out: Mean concentration, carcass
[7] = liver, other: exposure via tank water, 10 μg/L (nominal water concentration), read-out: Mean concentration, liver
[8] = liver, other: water exposure, 10 µg/L, read-out: Mean concentration, liver
[9] = ovary, other: exposure via tank water, 10 μg/L (nominal water concentration), read-out: Mean concentration, ovary
[10] = ovary, other: water exposure, 10 µg/L, read-out: Mean concentration, ovary
[11] = whole body (calculated), other: water exposure, 10 µg/L, read-out: Mean concentration, whole body (calculated)
[12] = whole body, other: exposure via tank water, 10 μg/L (nominal water concentration), read-out: Mean concentration, whole body (calculated)
[13] = whole body, other: water exposure, 10 µg/L, read-out: Mean concentration, whole body (measured)
[14] = 17 μg/L (water concentration), brain
[15] = 17 μg/L (water concentration), carcass

Oc1ccc(C2(c3ccc(O)cc3)CCCCC2)cc1 [BPZ, bisphenol Z]
CL ([1]; both series combined): 0.30 mL/(h x mg)
CLin vivo,int (in vivo intrinsic clearance) ([1]; from measured S9 clearance, transformed as suggested by Nichols et al.): 17.4 L/d/Kg fish
CL (clearance rate) ([1]; in vitro incubation with rainbow trout liver S9, assuming 163 mg S9 protein/g liver): 1.16 × 10^3 mL/d/g liver
CL ([1]; series 1 (s1)): 0.33 mL/(h x mg)
k (first-order disappearance rate constant) ([1]; series 1 (s1)): 0.32 h⁻¹
CL ([1]; series 2 (s2)): 0.26 mL/(h x mg)
k (first-order disappearance rate constant) ([1]; series 2 (s2)): 0.26 h⁻¹
concentration at 12 h [2, 3]: 82.1 ng/g
concentration at 483 h [2, 3]: 14.4 ng/g
concentration at 486 h [2, 3]: 7.9 ng/g
concentration at 492 h [2, 3]: < 2.5 ng/g
concentration at 504 h [2, 3]: < 3 ng/g
concentration at 576 h [2, 3]: < 2.5 ng/g
concentration at 6 h [2, 4]: 72 ng/g
concentration at 24 h [2, 4]: 116 ng/g
concentration at 48 h [2, 4]: 64.4 ng/g
concentration at 72 h [2, 4]: 170 ng/g
concentration at 336 h [2, 4]: 156 ng/g
concentration at 411 h [2, 4]: 150 ng/g
concentration at 480 h [2, 4]: 61.4 ng/g
concentration at 480 h [2, 5]: 249 ng/g
concentration at 483 h [2, 5]: 133 ng/g
concentration at 486 h [2, 5]: 24.3 ng/g
concentration at 492 h [2, 5]: 18.9 ng/g
concentration at 504 h [2, 5]: 8.3 ng/g
concentration at 576 h [2, 5]: 1.6 ng/g
concentration at 6 h [2, 6]: 160 ng/g
concentration at 12 h [2, 6]: 261 ng/g
concentration at 24 h [2, 6]: 671 ng/g
concentration at 48 h [2, 6]: 612 ng/g
concentration at 72 h [2, 6]: 1120 ng/g
concentration at 336 h [2, 6]: 348 ng/g
concentration at 411 h [2, 6]: 557 ng/g
concentration at 12 h [2, 7]: 57.5 ng/g
concentration at 483 h [2, 7]: 252 ng/g
concentration at 486 h [2, 7]: 71.3 ng/g
concentration at 492 h [2, 7]: 11 ng/g
concentration at 504 h [2, 7]: 12.4 ng/g
concentration at 576 h [2, 7]: 4.4 ng/g
concentration at 6 h [2, 8]: 182 ng/g
concentration at 24 h [2, 8]: 364 ng/g
concentration at 48 h [2, 8]: 225 ng/g
concentration at 72 h [2, 8]: 536 ng/g
concentration at 336 h [2, 8]: 146 ng/g
concentration at 411 h [2, 8]: 232 ng/g
concentration at 480 h [2, 8]: 1010 ng/g
concentration at 12 h [2, 9]: 113 ng/g
concentration at 480 h [2, 9]: 69.3 ng/g
concentration at 483 h [2, 9]: 108 ng/g
concentration at 486 h [2, 9]: 108 ng/g
concentration at 492 h [2, 9]: 84.5 ng/g
concentration at 504 h [2, 9]: 48.3 ng/g
concentration at 576 h [2, 9]: 1 ng/g
concentration at 6 h [2, 10]: 85.3 ng/g
concentration at 24 h [2, 10]: 146 ng/g
concentration at 48 h [2, 10]: 146 ng/g
concentration at 72 h [2, 10]: 259 ng/g
concentration at 336 h [2, 10]: 269 ng/g
concentration at 411 h [2, 10]: 214 ng/g
concentration at 12 h [2, 11]: 203 ng/g
concentration at 24 h [2, 11]: 530 ng/g
concentration at 48 h [2, 11]: 500 ng/g
concentration at 72 h [2, 11]: 900 ng/g
concentration at 336 h [2, 11]: 296 ng/g
concentration at 411 h [2, 11]: 472 ng/g
concentration at 6 h [2, 12]: 130 ng/g
concentration at 6 h ([2]; whole body, other: exposure via tank water, 10 μg/L (nominal water concentration), read-out: Mean concentration, whole body (measured)): 215 ng/g
concentration at 480 h [2, 12]: 449 ng/g
concentration at 483 h [2, 12]: 128 ng/g
concentration at 486 h [2, 12]: 35.1 ng/g
concentration at 492 h [2, 12]: 28.2 ng/g
concentration at 504 h [2, 12]: 14.5 ng/g
concentration at 576 h [2, 12]: 1.5 ng/g
concentration at 12 h [2, 13]: 336 ng/g
concentration at 24 h [2, 13]: 435 ng/g
Cmax [2, 14]: 170 ng/g
half-life [2, 14]: 135 h
Cmax [2, 15]: 1120 ng/g
half-life [2, 15]: 119 h
Cmax ([2]; liver): 1010 ng/g
half-life ([2]; liver): 210 h
Cmax ([2]; ovaries): 270 ng/g
half-life ([2]; ovaries): 247 h
Cmax ([2]; whole body): 900 ng/g
half-life ([2]; whole body): 134 h
AUC (female zebrafish; brain): 2.85 µg/g/day
BCF (female zebrafish; brain): 10.0
AUC (female zebrafish; carcass): 12.5 µg/g/day
BCF (female zebrafish; carcass): 65.9
AUC (female zebrafish; liver): 7.07 µg/g/day
BCF (female zebrafish; liver): 59.2
AUC (female zebrafish; ovaries): 4.70 µg/g/day
BCF (female zebrafish; ovaries): 15.8
AUC (female zebrafish; whole body): 10.6 µg/g/day
BCF (female zebrafish; whole body): 52.9
Pbb (brain to blood partition coefficient) (zebrafish): 0.42
